The source of these data is patent US20230097553A1 (priority 2020, published 2023).

Values joined by “and” are separate entries in the source; they are usually repeats but may differ in a detail not shown here. Equal values may be shown once. Read-outs that look alike come from different tables or passages of the source.

The subject of one series is Ebola virus replicon. The series can be described thus: microbe, parasite or virus in culture. The format is cell-based. The note with it: for IC50: Zaire ebolavirus.
Another series in a line: in vitro. As to conditions: Syrian hamster.
In series [1] the test system is 2019-nCoV (2019BetaCoV/Wuhan/WIV04/2019 strain). Description: microbe, parasite or virus in culture. The format is cell-based.
For series [2], the system named is avian influenza virus A/GuangZhou/99 (H9N2). The series can be described thus: organism not typed. The format is cell-based.
Series [3] deals with COVID-19. Description: Compassionate use in small-scale (10 cases) COVID-19 patients. Type of series: in vivo, human.
Series [4] deals with influenza virus A/WSN/33 (H1N1). More on the design: species or system BALB/c female mice. The note with it: mouse, in vivo.
The nature of series [5]: Drug toxicity by CellTiter-Glo (CC50), 2019-nCoV host cells. The note with it: African green monkey, Vero E6 cells. (In general: In ATP-based viability assays light output follows the ATP content of the culture.)
Another series concerns MDCK cells. As to conditions: dog.
The subject of series [6] is COVID-19. Description: Compassionate use in large-scale (132 cases) COVID-19 patients. Type of series: in vivo, human. The note with it: patients who took leflunomide within 18 days of admission.
Series [7] in a line: Antiviral activity in combination with other antiviral drugs. The note with it: combined with lopinavir, ritonavir, ribavirin, remdesivir, oseltamivir, tamiflu, lanimivir, peramivir, chloroquine.
Where [8] appears, read: Severe acute respiratory syndrome coronavirus 2, Vero C1008, 48 h.

In the case of `C/C(O)=C(\C#N)C(=O)Nc1ccc(C(F)(F)F)cc1` [Teriflunomide, teriflunomide], the SI in the series with Ebola virus replicon was determined as 32.26; in [1] it was 141.75; in series [2], 53.13. Moreover, the IC50 was determined as 3.41 µM in the series on Ebola virus replicon (BSR-T7/5, 24 h); 0.923 µg/mL with Ebola virus replicon (BSR-T7/5, read-out: drug concentration at which inhibitory efficiency on virus replication reaches 50%); 6 µM in series [1] (setting [8]); 1.62 µg/mL in series [1] (Severe acute respiratory syndrome coronavirus 2, Vero C1008, read-out: drug concentration at which inhibitory efficiency on virus replication reaches 50%); 3.36 µM in series [2] (MDCK); 0.9 µg/mL in [2] (unidentified influenza virus, H9N2, MDCK, read-out: drug concentration at which inhibitory efficiency on virus replication reaches 50%). The same molecule had a CC50 in the series “in vitro” of 110 µM.

Regarding `Cc1oncc1C(=O)Nc1ccc(C(F)(F)F)cc1` [Leflunomide, leflunomide], the “Time to negative conversion after treatment” value with COVID-19 [3] (leflunomide experimental group, Number of Patients 1) was 4 days; with COVID-19 [3] (leflunomide experimental group, Number of Patients 3), 8 days; in the series with COVID-19 [3] (leflunomide experimental group, Number of Patients 4), 5 days. Moreover, the CRP after treatment in the series with COVID-19 [3] (leflunomide experimental group, n = 5, range (5-5), normal 0-10, P value 0.109 vs before) came to 5 mg/L. The molecule further had a CRP before treatment in the series on COVID-19 [3] (leflunomide experimental group, n = 5, range (7.8-120.6), normal 0-10) of 37.4 mg/L. In the series on COVID-19 [3] (small-scale (10 cases), after leflunomide treatment), the “level of C-reactive protein” value is on record as “significantly reduced”. In the series with COVID-19 [3] (small-scale (10 cases), control group median 11 days, P=0.046), the “time to negative conversion (median)” value is given as 5 days. The SI worked out at 10.66 in the series with Ebola virus replicon, 21.19 in [1] and 8.58 in [2]. The IC50 in the series with Ebola virus replicon (BSR-T7/5, 24 h) was 15.3 µM; in series [1] (setting [8]), 41.5 µM; in [2] (MDCK) it was 8.12 µM. For the same molecule, the “mice rescued from death” value in [4] is 50% and 100%. The CC50 worked out at 163 µM in “in vitro” and 69.6 µM in the series on MDCK cells. In addition, the CC50 at 72 h in [5] came to 879 µM. Besides, in the series on COVID-19 [6], the “time from taking leflunomide (LEF) to negative conversion (VC), median” value came to 6.5 days. Moreover, in the series on COVID-19 [6] (control group median 25 days), the “time from admission (AD) to negative conversion (VC), median” value worked out at 16 days. The “therapeutic effects in combination with other antiviral drugs” value in series [7] is on record as “better therapeutic effects”.
